Source: US12084709B2, “Screening method” (Mars, Incorporated, priority 2018, dated 2024)

System: Porphyromonas macacae JN713359
Test: mBB fluorescent C-S lyase / VSC production method with whole bacteria
Assay type: cell-based
Conditions: 0.12% CHX treatment; relative to control
Protocol: The C-S lyase activity was measured in order to quantitate VSC production by the bacteria. This was conducted by using monobromobiname, a fluorescent probe for thiol. The bacteria were washed and resuspended in Tris buffer (pH 8.5) at OD=1.0. The 250 μL reaction mix contained 4 mM benzylcysteine, 100 μM monobromobimane, 10 μM pyridoxal 5′-phosphate, 50 μL of the bacteria suspension and was made up to 250 μL with tris buffer (pH 8.5). The mix was incubated anaerobically for 45 minutes at 37° C. The C-S lyase activities were determined based on fluorescence at 490 nm (em) upon excitation at 385 nm (ex). All measurements were performed in biological duplicate with each repeated in technical triplicates, creating total of 6 data points per strain. Blank measurements (containing buffer instead of crude extract) were used to correct the values derived from the substrate. The standard curve was measured using Benzyl mercaptan at 8-128 μM. The protein concentration of the bacteria suspension was determined by means of a commercially available BCA kit in accordance with the manufacturer's method. The specific C-S lyase activity was calculated by dividing the increase in fluorescence equivalent to Benzyl mercaptan concentration by the total protein content of the suspension in mg and expressed as unit which was defined as “nM Benzyl mercaptan release/μg protein/minute”. […]

[H]/N=C(\N/C(=N/[H])NCCCCCCNC(=N)NC(=N)Nc1ccc(Cl)cc1)Nc1ccc(Cl)cc1 [CHX, Chlorhexidine, reference compound]
quantity of VSC produced as the control: 25%
